Laboratory results from patent publication US5824540A, “Pseudomonas putida strain with dioxygenase activity” (Merck & Co., Inc., priority 1996, dated 1998).

Tested on: P. putida F1
Experiment: Growth of P. putida F1 test tube cultures in MMC medium with ICR 191 (mutation procedure 1)
Assay type: cell-based, Pseudomonas putida
Details: 16 to 18 hour incubation, 30° C., dark
Method: In procedure 1, cells were grown overnight in TSB at 30° C. and diluted 10^-4 with phosphate buffer (100 mM, pH 7.2). Several 18×150 mm test tubes containing 3 ml of MMC medium plus 0 (control), 10, 20, 30, 40, 50, 75, or 100 mg/l ICR 191 were inoculated with 0.1 ml of the diluted inoculum. Test tube cultures were incubated in the dark at 30° C. with 220 RPM agitation. […] The cells from 20 mg/l ICR 191 culture were harvested by centrifugation, washed twice with phosphate buffer.

**Q.** Which results are given for COc1ccc2nc3cc(Cl)ccc3c(NCCCNCCCl)c2c1 [ICR 191]?
**A.** effect on growth (10 mg/l ICR 191): no detectable effect on growth; level of growth relative to control (20 mg/l ICR 191): approximately half that of the control; growth of culture (30 mg/l ICR 191): a trace of growth; growth of culture (ICR 191 concentrations above 30 mg/l): completely inhibited growth
